Experimental data from article PMC12028158, “Synthesis and In Vitro Evaluation of the Anticancer Effect of Novel Phosphonium Vindoline Derivatives” (International Journal of Molecular Sciences, 2025).

Experiments:
Type in all cases: cell-based
[1] = tested on: NCI-H460; assay: NCI60 one-dose screen; conditions: Homo sapiens, NCI-H460, read-out: Growth percent
[2] = tested on: NCI/ADR-RES; assay: NCI60 one-dose screen; conditions: Homo sapiens, read-out: Growth percent
[3] = tested on: U251; assay: NCI60 five-dose screen; conditions: Homo sapiens, U-251
[4] = tested on: NCI-H226; assay: NCI60 five-dose screen; conditions: Homo sapiens, NCI-H226
[5] = tested on: M14; assay: NCI60 five-dose screen; conditions: Homo sapiens, M14
[6] = tested on: U251; assay: NCI60 one-dose screen; conditions: Homo sapiens, U-251, read-out: Growth percent
[7] = tested on: TK-10; assay: NCI60 one-dose screen; conditions: Homo sapiens, TK-10, read-out: Growth percent
[8] = tested on: HS 578T; assay: NCI60 one-dose screen; conditions: Homo sapiens, Hs-578T, read-out: Growth percent
[9] = tested on: SF-295; assay: NCI60 one-dose screen; conditions: Homo sapiens, SF-295, read-out: Growth percent
[10] = tested on: SF-295; assay: NCI60 five-dose screen; conditions: Homo sapiens, SF-295
[11] = tested on: TK-10; assay: NCI60 five-dose screen; conditions: Homo sapiens, TK-10
[12] = tested on: HCT-116; assay: NCI60 five-dose screen; conditions: Homo sapiens, HCT-116
[13] = tested on: IGROV1; assay: NCI60 five-dose screen; conditions: Homo sapiens, IGROV-1
[14] = tested on: SNB-19; assay: NCI60 five-dose screen; conditions: Homo sapiens, SNB-19
[15] = tested on: T-47D; assay: NCI60 five-dose screen; conditions: Homo sapiens, T47D
[16] = tested on: MDA-MB-435; assay: NCI60 one-dose screen; conditions: Homo sapiens, MDA-MB-435, read-out: Growth percent
[17] = tested on: DU-145; assay: NCI60 one-dose screen; conditions: Homo sapiens, DU-145, read-out: Growth percent
[18] = tested on: MOLT-4; assay: NCI60 five-dose screen; conditions: Homo sapiens, MOLT-4
[19] = tested on: A498; assay: NCI60 five-dose screen; conditions: Homo sapiens, A498
[20] = tested on: NCI-H522; assay: NCI60 five-dose screen; conditions: Homo sapiens, NCI-H522
[21] = tested on: ACHN; assay: NCI60 five-dose screen; conditions: Homo sapiens
[22] = tested on: Colon Cancer panel; assay: NCI60 five-dose screen, panel mean; conditions: Homo sapiens, read-out: GI50 Mean
[23] = tested on: MDA-MB-468; assay: NCI60 five-dose screen; conditions: Homo sapiens, MDA-MB-468
[24] = tested on: ACHN; assay: NCI60 one-dose screen; conditions: Homo sapiens, read-out: Growth percent
[25] = tested on: MCF7; assay: NCI60 one-dose screen; conditions: Homo sapiens, MCF7, read-out: Growth percent
[26] = tested on: HT29; assay: NCI60 five-dose screen; conditions: Homo sapiens, HT-29
[27] = tested on: SK-OV-3; assay: NCI60 one-dose screen; conditions: Homo sapiens, SK-OV-3, read-out: Growth percent
[28] = tested on: IGROV1; assay: NCI60 one-dose screen; conditions: Homo sapiens, IGROV-1, read-out: Growth percent
[29] = tested on: SF-268; assay: NCI60 one-dose screen; conditions: Homo sapiens, SF-268, read-out: Growth percent
[30] = tested on: 786-0; assay: NCI60 one-dose screen; conditions: Homo sapiens, 786-0, read-out: Growth percent
[31] = tested on: SK-MEL-5; assay: NCI60 one-dose screen; conditions: Homo sapiens, SK-MEL-5, read-out: Growth percent
[32] = tested on: A498; assay: NCI60 one-dose screen; conditions: Homo sapiens, A498, read-out: Growth percent
[33] = tested on: SR; assay: NCI60 one-dose screen; conditions: Homo sapiens, read-out: Growth percent
[34] = tested on: SN12C; assay: NCI60 one-dose screen; conditions: Homo sapiens, read-out: Growth percent
[35] = tested on: UACC-62; assay: NCI60 five-dose screen; conditions: Homo sapiens, UACC-62
[36] = tested on: MDA-MB-468; assay: NCI60 one-dose screen; conditions: Homo sapiens, MDA-MB-468, read-out: Growth percent
[37] = tested on: A549/ATCC; assay: NCI60 five-dose screen; conditions: Homo sapiens, A549
[38] = tested on: NCI-H522; assay: NCI60 one-dose screen; conditions: Homo sapiens, NCI-H522, read-out: Growth percent
[39] = tested on: MDA-MB-231/ATCC; assay: NCI60 one-dose screen; conditions: Homo sapiens, MDA-MB-231, read-out: Growth percent
[40] = tested on: HOP-92; assay: NCI60 five-dose screen; conditions: Homo sapiens, HOP-92
[41] = tested on: Prostate Cancer panel; assay: NCI60 five-dose screen, panel mean; conditions: Homo sapiens, read-out: GI50 Mean
[42] = tested on: EKVX; assay: NCI60 five-dose screen; conditions: Homo sapiens
[43] = tested on: HCC-2998; assay: NCI60 one-dose screen; conditions: Homo sapiens, HCC 2998, read-out: Growth percent
[44] = tested on: OVCAR-5; assay: NCI60 five-dose screen; conditions: Homo sapiens, OVCAR-5
[45] = tested on: OVCAR-8; assay: NCI60 five-dose screen; conditions: Homo sapiens, OVCAR-8
[46] = tested on: M14; assay: NCI60 one-dose screen; conditions: Homo sapiens, M14, read-out: Growth percent
[47] = tested on: CCRF-CEM; assay: NCI60 five-dose screen; conditions: Homo sapiens

## CC[C@]12C=CCN3CC[C@@]4(c5ccc(OC)cc5N(C)[C@H]4[C@@](O)(C(=O)OC)[C@@H]1OC(=O)CCCC[P+](c1ccc(OC)cc1)(c1ccc(OC)cc1)c1ccc(OC)cc1)[C@@H]32 [10b]
[1]
  activity at 10 µM: -87%
[2]
  activity at 10 µM: 84.3%
[3]
  GI50: 0.392 µM
[4]
  GI50: 2.03 µM
[5]
  GI50: 1.2 µM
[6]
  activity at 10 µM: -95.9%
[7]
  activity at 10 µM: -88.2%
[8]
  activity at 10 µM: -67.5%
[9]
  activity at 10 µM: -93.6%
[10]
  GI50: 1.97 µM
[11]
  GI50: 1.67 µM
[12]
  GI50: 1.3 µM
[13]
  GI50: 0.548 µM
[14]
  GI50: 0.484 µM
[15]
  GI50: 0.383 µM
[16]
  activity at 10 µM: -88.5%
[17]
  activity at 10 µM: -58.2%
[18]
  GI50: 1.18 µM
[19]
  GI50: 2.93 µM
[20]
  GI50: 0.341 µM
[21]
  GI50: 6.28 µM
[22]
  GI50: 1.88 µM
[23]
  GI50: 0.264 µM
[24]
  activity at 10 µM: -49.2%
[25]
  activity at 10 µM: -82.6%
[26]
  GI50: 0.511 µM
[27]
  activity at 10 µM: -82.5%
[28]
  activity at 10 µM: -92%
[29]
  activity at 10 µM: -38.1%
[30]
  activity at 10 µM: -92.9%
[31]
  activity at 10 µM: -97%
[32]
  activity at 10 µM: -54.7%
[33]
  activity at 10 µM: 23.2%
[34]
  activity at 10 µM: -95.3%
[35]
  GI50: 0.963 µM
[36]
  activity at 10 µM: -92.7%
[37]
  GI50: 1.65 µM
[38]
  activity at 10 µM: -81.9%
[39]
  activity at 10 µM: -97.4%
[40]
  GI50: 0.52 µM
[41]
  GI50: 8.28 µM
[42]
  GI50: 0.185 µM
[43]
  activity at 10 µM: -88.4%
[44]
  GI50: 2.13 µM
[45]
  GI50: 1.99 µM
[46]
  activity at 10 µM: -89.8%

## CCC12C=CCN3CC[C@@]4(c5ccc(OC)cc5N(C)[C@H]4[C@@](O)(C(=O)OC)[C@@H]1OC(C)=O)[C@@H]32 (stereo partly drawn) [compound 2, vindoline]
[1]
  activity at 10 µM: 104%
[2]
  activity at 10 µM: 110%
[6]
  activity at 10 µM: 99.4%
[7]
  activity at 10 µM: 92.1%
[8]
  activity at 10 µM: 113%
[9]
  activity at 10 µM: 99.5%
[16]
  activity at 10 µM: 105%
[17]
  activity at 10 µM: 107%
[24]
  activity at 10 µM: 101%
[25]
  activity at 10 µM: 99%
[27]
  activity at 10 µM: 108%
[28]
  activity at 10 µM: 98.4%
[29]
  activity at 10 µM: 100%
[30]
  activity at 10 µM: 104%
[31]
  activity at 10 µM: 102%
[32]
  activity at 10 µM: 99.6%
[34]
  activity at 10 µM: 96.1%
[36]
  activity at 10 µM: 102%
[38]
  activity at 10 µM: 88.5%
[39]
  activity at 10 µM: 97.7%
[43]
  activity at 10 µM: 118%
[46]
  activity at 10 µM: 104%

## CC[C@]12C=CCN3CC[C@@]4(c5ccc(OC)cc5N(C)[C@H]4[C@@](O)(C(=O)OC)[C@@H]1OC(=O)CCCC[P+](c1ccccc1)(c1ccccc1)c1ccccc1)[C@@H]32 [compound 4, reference compound]
[1]
  activity at 10 µM: 18.4%
[2]
  activity at 10 µM: 91.6%
[3]
  GI50: 0.312 µM
[4]
  GI50: 1.93 µM
[5]
  GI50: 1.79 µM
[6]
  activity at 10 µM: 10.9%
[7]
  activity at 10 µM: 48.6%
[8]
  activity at 10 µM: 9.79%
[9]
  activity at 10 µM: 58.1%
[10]
  GI50: 2.75 µM
[11]
  GI50: 2.82 µM
[12]
  GI50: 1.06 µM
[13]
  GI50: 0.553 µM
[14]
  GI50: 0.397 µM
[15]
  GI50: 0.303 µM
[16]
  activity at 10 µM: -19.7%
[17]
  activity at 10 µM: 14.7%
[19]
  GI50: 2.84 µM
[20]
  GI50: 0.229 µM
[21]
  GI50: 14.6 µM
[22]
  GI50: 3.19 µM
[23]
  GI50: 0.17 µM
[24]
  activity at 10 µM: 93%
[25]
  activity at 10 µM: 4.69%
[26]
  GI50: 0.404 µM
[47]
  GI50: 0.697 µM
[27]
  activity at 10 µM: -2.96%
[28]
  activity at 10 µM: -36.4%
[29]
  activity at 10 µM: 26.2%
[30]
  activity at 10 µM: 57.2%
[31]
  activity at 10 µM: -72.9%
[32]
  activity at 10 µM: 52.2%
[33]
  activity at 10 µM: 17.9%
[34]
  activity at 10 µM: 4.56%
[35]
  GI50: 0.403 µM
[36]
  activity at 10 µM: -63.9%
[37]
  GI50: 1.02 µM
[38]
  activity at 10 µM: -5.5%
[39]
  activity at 10 µM: -2.41%
[40]
  GI50: 0.268 µM
[41]
  GI50: 0.57 µM
[42]
  GI50: 0.586 µM
[43]
  activity at 10 µM: 15.9%
[44]
  GI50: 1.82 µM
[45]
  GI50: 1.74 µM
[46]
  activity at 10 µM: 29.4%
